# Laboratory results as given in article PMC4741798, “Imaging of carbonic anhydrase IX with an ^111In-labeled dual-motif inhibitor” (Oncotarget, 2015).
# Values joined by “and” are separate entries in the source; they are usually repeats but may differ in a detail not shown here. Equal values may be shown once.
# Test system: SK-RC-52 xenografts
# Test: Biodistribution in mice bearing SK-RC-52 xenografts
# Format: in vivo
# Settings: n = 5; for Biodistribution: Tumor: SK-RC-52 tumor
# Description: Mice bearing SK-RC-52 xenografts within the lower left flank were injected intravenously with 740 kBq (20 μCi) of [^111In]XYIMSR-01 in 200 μL of PBS. For in vivo competition (binding specificity) studies, tumor-bearing mice were injected with 740 kBq (20 μCi) of [^111In]XYIMSR-01 and 200 nmole of 1 in 200 μL of PBS concurrently. At 1 h, 4 h, 8 h, 24 h and 48 h post-injection, mice were sacrificed by cervical dislocation and the blood was immediately collected by cardiac puncture. Heart, lungs, pancreas, spleen, fat, brain, muscle, small intestines, liver, stomach, kidney, urinary bladder, and tumor were collected. Each organ was weighed and the tissue radioactivity was measured with an automated gamma counter (1282 Compugamma CS, Pharmacia/LKBNuclear, Inc., Mt. Waverly, Vic. Australia). The percentage of injected dose per gram of tissue (% ID/g) was calculated by comparison with samples of a standard dilution of the initial dose. All measurements were corrected for radioactive decay.
# Data were expressed as mean ± standard deviation (SD). Prism software (GraphPAD, San Diego, California) was used to determine statistical significance. Statistical significance was calculated using a paired t test. P-values < 0.0001 were considered significant.
# [1] = 24 h + Block (co-injected 200 nmole of 1)
smiles,measurement,setting,value
CC(CCC(=O)N[C@@H](CC(=O)N[C@@H](CC(=O)N[C@@H](CCCCn1cc(CCCC(=O)Nc2nnc(S(N)(=O)=O)s2)nn1)C(=O)NCCOCCOCCNC(=O)CN1CCN(CC(=O)[O-])CCN(CC(=O)[O-])CCN(CC(=O)[O-])CC1)C(=O)O)C(=O)O)(c1ccc(O)cc1)c1ccc(O)cc1.[111In+3] [[^111In]XYIMSR-01],Biodistribution: Tumor,"1 h post-injection, i.v.",26 %ID/g and 26.01 ± 5.74 %ID/g
same,Biodistribution: Bladder,"1 h post-injection, i.v.",4.90 ± 4.96 %ID/g
same,Biodistribution: Blood,"1 h post-injection, i.v.",1.34 ± 0.17 %ID/g
same,Biodistribution: Brain,"1 h post-injection, i.v.",1.23 ± 1.10 %ID/g
same,Biodistribution: Fat,"1 h post-injection, i.v.",1.03 ± 0.24 %ID/g
same,Biodistribution: Heart,"1 h post-injection, i.v.",5.98 ± 0.53 %ID/g
same,Biodistribution: Kidney (kid),"1 h post-injection, i.v.",71.26 ± 8.74 %ID/g
same,Biodistribution: Liver,"1 h post-injection, i.v.",8.36 ± 0.73 %ID/g
same,Biodistribution: Lung,"1 h post-injection, i.v.",45.85 ± 19.89 %ID/g
same,Biodistribution: Muscle (mm),"1 h post-injection, i.v.",2.34 ± 2.19 %ID/g
same,Biodistribution: Pancreas,"1 h post-injection, i.v.",3.81 ± 0.72 %ID/g
same,Biodistribution: Sm. intestine,"1 h post-injection, i.v.",9.37 ± 1.26 %ID/g
same,Biodistribution: Spleen,"1 h post-injection, i.v.",0.52 ± 0.04 %ID/g
same,Biodistribution: Stomach,"1 h post-injection, i.v.",16.71 ± 2.46 %ID/g
same,Tumor/blood ratio,1 h post-injection,19.7 and 19.7 ± 4.8
same,Tumor/kid (kidney) ratio,1 h post-injection,0.36 ± 0.06
same,Tumor/mm (muscle) ratio,1 h post-injection,12.7 and 12.7 ± 5.8
same,Biodistribution: Tumor,"4 h post-injection, i.v.",20.83 ± 6.25 %ID/g
same,Biodistribution: Bladder,"4 h post-injection, i.v.",2.68 ± 1.89 %ID/g
same,Biodistribution: Blood,"4 h post-injection, i.v.",0.65 ± 0.06 %ID/g
same,Biodistribution: Brain,"4 h post-injection, i.v.",0.45 ± 0.06 %ID/g
same,Biodistribution: Fat,"4 h post-injection, i.v.",0.42 ± 0.22 %ID/g
same,Biodistribution: Heart,"4 h post-injection, i.v.",2.91 ± 0.45 %ID/g
same,Biodistribution: Kidney (kid),"4 h post-injection, i.v.",41.52 ± 6.07 %ID/g
same,Biodistribution: Liver,"4 h post-injection, i.v.",4.00 ± 0.58 %ID/g
same,Biodistribution: Lung,"4 h post-injection, i.v.",17.85 ± 3.55 %ID/g
same,Biodistribution: Muscle (mm),"4 h post-injection, i.v.",1.01 ± 0.28 %ID/g
same,Biodistribution: Pancreas,"4 h post-injection, i.v.",1.54 ± 0.40 %ID/g
same,Biodistribution: Sm. intestine,"4 h post-injection, i.v.",4.27 ± 0.69 %ID/g
same,Biodistribution: Spleen,"4 h post-injection, i.v.",0.51 ± 0.08 %ID/g
same,Biodistribution: Stomach,"4 h post-injection, i.v.",7.91 ± 1.28 %ID/g
same,Tumor/blood ratio,4 h post-injection,31.9 ± 9.4
same,Tumor/kid (kidney) ratio,4 h post-injection,0.50 ± 0.15
same,Tumor/mm (muscle) ratio,4 h post-injection,21.4 ± 7.2
same,Biodistribution: Tumor,"8 h post-injection, i.v.",34.00 ± 15.16 %ID/g
same,Biodistribution: Bladder,"8 h post-injection, i.v.",2.28 ± 0.51 %ID/g
same,Biodistribution: Blood,"8 h post-injection, i.v.",0.48 ± 0.02 %ID/g
same,Biodistribution: Brain,"8 h post-injection, i.v.",0.59 ± 0.09 %ID/g
same,Biodistribution: Fat,"8 h post-injection, i.v.",0.45 ± 0.08 %ID/g
same,Biodistribution: Heart,"8 h post-injection, i.v.",2.61 ± 0.35 %ID/g
same,Biodistribution: Kidney (kid),"8 h post-injection, i.v.",28.79 ± 21.35 %ID/g
same,Biodistribution: Liver,"8 h post-injection, i.v.",3.65 ± 0.65 %ID/g
same,Biodistribution: Lung,"8 h post-injection, i.v.",17.39 ± 8.99 %ID/g
same,Biodistribution: Muscle (mm),"8 h post-injection, i.v.",1.09 ± 0.15 %ID/g
same,Biodistribution: Pancreas,"8 h post-injection, i.v.",1.61 ± 0.28 %ID/g
same,Biodistribution: Sm. intestine,"8 h post-injection, i.v.",4.31 ± 0.67 %ID/g
same,Biodistribution: Spleen,"8 h post-injection, i.v.",0.64 ± 0.07 %ID/g
same,Biodistribution: Stomach,"8 h post-injection, i.v.",8.74 ± 1.26 %ID/g
same,Tumor/blood ratio,8 h post-injection,77.0 ± 32.5
same,Tumor/kid (kidney) ratio,8 h post-injection,3.1 ± 3.1
same,Tumor/mm (muscle) ratio,8 h post-injection,34.2 ± 16.0
same,Biodistribution: Tumor,[1],1 %ID/g and 1.41 ± 0.20 %ID/g
same,Biodistribution: Bladder,[1],0.20 ± 0.07 %ID/g
same,Biodistribution: Blood,[1],0.03 ± 0.00 %ID/g
same,Biodistribution: Brain,[1],0.03 ± 0.00 %ID/g
same,Biodistribution: Fat,[1],0.02 ± 0.01 %ID/g
same,Biodistribution: Heart,[1],0.04 ± 0.01 %ID/g
same,Biodistribution: Kidney (kid),[1],0.68 ± 0.14 %ID/g
same,Biodistribution: Liver,[1],0.10 ± 0.02 %ID/g
same,Biodistribution: Lung,[1],0.12 ± 0.02 %ID/g
same,Biodistribution: Muscle (mm),[1],0.02 ± 0.00 %ID/g
same,Biodistribution: Pancreas,[1],0.03 ± 0.00 %ID/g
same,Biodistribution: Sm. intestine,[1],0.08 ± 0.01 %ID/g
same,Biodistribution: Spleen,[1],0.08 ± 0.01 %ID/g
same,Biodistribution: Stomach,[1],0.14 ± 0.02 %ID/g
same,Tumor/blood ratio,[1],45.2 ± 9.7
same,Tumor/kid (kidney) ratio,[1],2.1 ± 0.3
